# Reference: patent publication US6291496A, “Treating cancers associated with overexpression of class I family of receptor tyrosine kinases” (priority 1999, dated 2001)
# Experiments:
# HER-2/neu in BT474 cells = experiment: immunoblot for HER-2/neu in BT474 cells; assay type: cell-based, human; conditions: 25 μM ciglitazone
# Text: The 184B5/HER cell line was obtained from a collaborator and was derived by stably transfecting 184B5 cells with a mutationally activated HER-2/neu oncogene; these cells form rapidly growing tumors when injected into athymic nude mice. The 184B5/HER cell line is described in Pierce, J. H., et al., Oncogene 6, 1189-1194 (1991). The BT-474 cell line is a human breast cancer adenocarcinoma cell line which overexpresses HER-2/neu, and was obtained from the American Type Culture Collection (Manassas, Va.) and bears accession number ATCC HBT-20.
# 184B5/HER cells were maintained in MEM-KBM mixed in a ratio of 1:1 (basal medium) containing epidermal growth factor (10 ng/ml), hydrocortisone (0.5 μg/ml), transferrin (10 μg/ml), gentamicin (5 μg/ml) and insulin (10 μg/ml) (growth medium). […] cells were grown to 60% confluence, trypsinized with 0.05% trypsin-2 mM ethylenediaminotetraacetic acid, and plated for experimental use. […]
# 184B5/HER cells were treated with vehicle (0.01% dimethylsulfoxide), 25 μM ciglitazone (Biomol, Plymouth Meeting, Pennsylvania) or 20 μM 15-d-PGJ2 (Biomol, Plymouth Meeting, Pennsylvania) for 24 hours. […] The protein concentration of the supernatant was measured by the method of Lowry, O. H., et al, J. Biol. Chem. 193, 265-275 (1951). […]
# HER-2/neu mRNA = experiment: Northern blotting for HER-2/neu mRNA in 184B5/HER cells; assay type: cell-based, human; conditions: 25 μM ciglitazone or 20 μM 15-d-PGJ2
# Procedure: Northern blotting was performed to evaluate whether PPARγ ligands decrease levels of HER-2/neu mRNA. 184B5/HER cells were treated with vehicle (0.01% dimethyl sulfoxide), 25 μM ciglitazone or 20 μM 15-d-PGJ2. Total cellular RNA was isolated from cell monolayers using an RNA isolation kit from Qiagen Inc. 10 μg of RNA was added to each lane. The 10 μg of total cellular RNA per lane were electrophoresed in a formaldehyde-containing 1.2% agarose gel and transferred to nylon-supported membranes. The blot was hybridized with probes that recognized HER-2/neu mRNA (Santa Cruz Biotechnology, Inc., Santa Cruz, Calif.) and 18S rRNA cDNA (Ambion, Inc., Austin, Tex.).
# [1] = test system: EGFR in 184B5 mammary epithelial cells; experiment: immunoblot for EGFR in 184B5 cells; assay type: cell-based, human; conditions: ciglitazone 5-30 μM or 15-d-PGJ2 5, 10 μM, 24 hours
# Procedure: The cells used were 184B5 cells. The 184B5 cell line was obtained from a collaborator and is an immortalized but non-tumorigenic human breast epithelial cell line that was established from a reduction mammaplasty and is described in Stampler, M. R, et al, Proc. Natl. Acad. Sci. USA 82, 2394-2398 (1985).
# 184B5 cells were maintained in MEM-KBM mixed in a ratio of 1:1 (basal medium) containing epidermal growth factor (10 ng/ml), hydrocortisone (0.5 μg/ml), transferrin (10 μg/ml), gentamicin (5 μg/ml), and insulin (10 μg/ml) (growth medium). 184B5 cells were grown to 60% confluence, trypsinized with 0.05% trypsin-2 mM ethylenediaminotetraacetic acid and plated for experimental use.
# 184B5 cells were treated with vehicle (0.01% dimethyl sulfoxide), ciglitazone (5, 10, 20, 30 μM) or 15-d-PGJ2 (5, 10 μM) for 24 hours. Cell lysates were prepared in RIPA buffer. Lysates were sonicated for 20 seconds on ice and centrifuged at 10,000×g for 10 minutes to sediment the particulate material. The protein concentration of the supernatant was measured by the method of Lowry,. O. H., et al, J. Biol. Chem. 193, 265-275 (1951). Cellular lysate protein (100 μg/lane) was loaded onto a 10% SDS-polyacrylamide gel, electrophoresed and subsequently transferred onto a nitrocellulose membrane(Schleicher & Schuell Keene, N. H.). […]
# EGFR transcription = experiment: nuclear run-off assay of EGFR transcription in 184B5 cells; assay type: cell-based, human; conditions: ciglitazone 5, 10, 25 μM, 24 hours
# Procedure: To determine whether PPARγ ligands inhibit the transcription of EGFR, a nuclear run-off assay was carried out. 184B5 cells were treated with vehicle (0.01% dimethyl sulfoxide) or ciglitazone (5, 10, 25 μM) for 24 hours. 2.5×10^5 cells were plated in four T150 dishes for each condition. Cells were grown in growth medium until 60% confluent. Nuclei were isolated and stored in liquid nitrogen. The EGFR and 18S rRNA cDNAs were immobilized onto a nitrocellulose membrane (Schleicher & Schuell, Keene, N.H.) and prehybridized overnight in hybridization buffer.
# [2] = test system: HER-2/neu positive breast cancer; experiment: Example I: adjuvant therapy after mastectomy; assay type: in vivo, human; conditions: patient, oral 5 mg/kg twice per day for five years after mastectomy
# [3] = test system: HER-2/neu positive breast cancer; experiment: Example II: adjuvant therapy with PPARγ ligand and HERCEPTIN; assay type: in vivo, human; conditions: patient, oral 5 mg/kg twice daily for one year, with HERCEPTIN 250 mg IV loading then 10 weekly doses of 125 mg
# [4] = test system: HER-2/neu positive breast cancer metastasized to bone; experiment: Example IV: breast cancer metastasized to bone; assay type: in vivo, human; conditions: patient after failure of prior chemotherapy, oral 5 mg/kg twice daily plus HERCEPTIN
# Procedure: After 90 days, oral cyclophosphamide at a dose of 3 mg/kg/day and doxorubicin administered intravenously weekly at a dose of 20 mg/m^2, are added to the drug regimen.
# [5] = test system: head and neck carcinoma where EGFR is overexpressed; experiment: Example VII: head and neck carcinoma; assay type: in vivo, human; conditions: after the 12 weeks of CETUXIMAB and cisplatin, oral 5 mg/kg twice daily for 12 weeks
# Procedure: Concurrently cisplatin is infused every four weeks at 60 mg/m^2.
# [6] = biological target: human PPARγ binding domain; conditions: scintillation proximity assay, radioligand [3H]BRL 49653; values reported in Henke et al, Collins et al, Cobb et al; cited from earlier work
smiles,measurement,setting,value
CC1(COc2ccc(CC3SC(=O)NC3=O)cc2)CCCCC1 (stereo not drawn) [ciglitazone],amounts of HER-2/neu (immunoblot),HER-2/neu in BT474 cells,decreased amounts of HER-2/neu
same,amounts of HER-2/neu mRNA (Northern blot),HER-2/neu mRNA,decrease amounts of HER-2/neu mRNA
same,amounts of EGFR (immunoblot),[1],decreased amounts of EGFR
same,EGFR transcription (nuclear run-off),EGFR transcription,dose-dependent suppression of EGFR transcription
same,recurrence of breast cancer,[2],Recurrence of breast cancer does not occur
same,recurrence of breast cancer,[3],Recurrence of breast cancer does not occur
same,tumor burden,[4],reduced tumor burden
same,tumor burden,[5],further reduced tumor burden
same,pKi in binding assay using the human PPARγ binding domain,[6],5.51±0.09
